From patent US20120258974A1, “USE OF A2B ADENOSINE RECEPTOR ANTAGONISTS FOR TREATING HEART FAILURE AND ARRHYTHMIA IN POST-MYOCARDIAL INFARCTION PATIENTS” (GILEAD SCIENCES, INC., priority 2011, published 2012)

Columns and labels:
[1] = test system: rats with MI (25 minutes coronary occlusion followed by reperfusion); assay: VT inducibility in rat model of post-MI remodeling (Example 6); format: in vivo; details: 5 weeks post-MI; total N 11
Description: (§1) The effects of Compound A in a rat model of post-MI remodeling and VT were determined. MI was caused by 25 minutes occlusion at the left anterior descending coronary ligation followed by reperfusion. One week later, rats were administered either vehicle or Compound A (100 mg/kg) once daily by oral gavage. Serial echocardiograms (ECHOs) to measure LV ejection fraction (LVEF), stroke volume and LV end systolic volume (LVESV) were obtained at baseline, 1 week and 5 week post-MI. Electrophysiological studies, optical mapping, histology and biomarker analysis were conducted at 5 week post-MI.
Ventricular tachycardia (VT) is a common cause of mortality in post-MI patients, even with current coronary revascularization treatment. In this rat model of post-MI remodeling, VT was consistently inducible in more than half of the animals. Thus, the effect of Compound A in VT inducibility was determined at 5 weeks post-MI.

[2] = test system: rats with MI (25 minutes coronary occlusion followed by reperfusion); assay: Plasma biomarkers at 5 week post-MI, rat post-MI model (Example 6); format: in vivo
Description: as §1

[3] = test system: rats with MI (25 minutes coronary occlusion followed by reperfusion); assay: Rat model of post-MI remodeling: serial echocardiograms (Example 6); format: in vivo
Description: as §1

[4] = test system: primary human cardiac fibroblasts (HCF); assay: NECA-induced release of IL-6, collagen, ST-2, PAPPA and expression of fibrotic markers in human cardiac fibroblasts (Example 2); format: cell-based; details: antagonist with NECA
Description: Real-time RT-PCR was performed as published using Stratagene PCR equipment (La Jolla, Calif.). Zhong H., et al., “A2B adenosine receptors increase cytokine release by bronchial smooth muscle cells,” American Journal of Respiratory Cell and Molecular Biology, 30(1): 118-125 (2004).
Expression of AdoR, α-smooth muscle actin and α-1 pro-collagen was determined using real-time RT-PCR. The concentration of IL-6, soluble ST-2 and PAPPA (Pregnancy-associated plasma protein A) in the cell supernatants were measured using ELISA, and the concentration of soluble collagen were determined using Sircol™ collagen assay.

[5] = test system: human cardiac myocytes (HCM); assay: NECA-induced IL-6 release from human cardiac myocytes (Example 7); format: cell-based; details: NECA in combination with antagonist
Description: This example uses human cardiac myocytes to test two other A2B adenosine receptor antagonists on their effect on NECA-induced IL-6 release.
Human cardiac myocytes (HCM) were treated with NECA alone, or in combination with Compound A, Compound B (N-[5-(1-cyclopropyl-2,6-dioxo-3-propyl-2,3,6,7-tetrahydro-1H-purin-8-yl)-pyridin-2-yl]-N-ethyl-nicotinamide, also known as ATL-801) or Compound C (2-(4-benzyloxy-phenyl)-N-[5-(2,6-dioxo-1,3-dipropyl-2,3,6,7-tetrahydro-1H-purin-8-yl)-1-methyl-1H-pyrazol-3-yl]-acetamide).

[6] = test system: rats with MI (25 minutes coronary occlusion followed by reperfusion); assay: Histology of fibrosis in the infarct border zone, rat post-MI model (Example 6); format: in vivo; details: 5 week post-MI; Sirius red; vs vehicle control
Description: as §1
Abnormal conduction in the IBZ is due to tissue remodeling. Excessive fibrosis in the IBZ is an important substrate for VT vulnerability.

[7] = test system: rats with MI (25 minutes coronary occlusion followed by reperfusion); assay: Conduction velocities in LV myocardium, optical mapping, rat post-MI model (Example 6); format: in vivo; details: 5 week post-MI
Description: as §1
Abnormal electrical impulse conduction in the infarct border zone (IBZ) is important in the pathogenesis of post-MI arrhythmias. As shown in the conduction vector maps (FIG. 13A-B), the vehicle control group has much slower conduction velocity than the Compound A treated animals. To quantify the impact of Compound A on conduction properties, conduction velocities (CVs) were measured for infarct, border, and normal zones of LV myocardium. CVs in normal zones were fastest among all zones and were similar between placebo and Compound A groups (FIG. 14A). […] Finally, CVs in IBZs of both groups were in between those of non-infarct and infarct zones.

ob/ob model mice = assay: Inflammatory biomarker expression in ob/ob mice after 28-day dosing (Example 5); format: in vivo, mouse
Description: The A2B antagonist, Compound A (3 mg/kg/day or 10 mg/kg/day), was given to 6 weeks old ob/ob model mice for 28 days. At the end of the 28-day dosing, expression of a number of inflammatory biomarkers, MCP-1, IL-1b, IL-2 and IL-6, were measured in these mice as compared to control (vehicle).

[8] = 3 mg/kg/day or 10 mg/kg/day for 28 days, vs vehicle

SMILES: CCCn1c(=O)c2[nH]c(-c3cnn(Cc4cccc(C(F)(F)F)c4)c3)nc2n(CC)c1=O [Compound A, 3-ethyl-1-propyl-8-(1-(3-(trifluoromethyl)benzyl)-1H-pyrazol-4-yl)-1H-purine-2,6(3H,7H)-dione]
- No VT (number of animals) [1]: 10
- VT (number of animals) [1]: 1
- plasma IL-6 [2]: significantly reduced
- plasma PAI-1 [2]: significantly reduced
- increase of plasma BNP ([2]; P=0.16): trend
- increase in LVESV ([3]; 100 mg/kg once daily oral gavage from 1 week post-MI): significantly reduced
- LVEF ([3]; 1 week post-MI (start of dosing), Compound A group): 53.1±3.2%
- LVEF ([3]; 5 weeks post-MI, 100 mg/kg once daily oral gavage from 1 week post-MI, vehicle 40.7±2.2): 55.6±2.6%
- effect of NECA on expression of α-1 pro-collagen [4]: completely abolished
- effect of NECA on expression of α-smooth muscle actin [4]: completely abolished
- effect of NECA on release of IL-6 [4]: completely abolished
- effect of NECA on release of PAPPA [4]: completely abolished
- effect of NECA on release of ST-2 [4]: completely abolished
- effect of NECA on release of collagen [4]: completely abolished
- effect of NECA on HCM (IL-6 release) [5]: completely abolished
- fibrosis in the IBZ [6]: inhibited
- conduction velocities in normal zones ([7]; vs placebo): similar
- conduction velocities in IBZs ([7]; vs placebo control): significantly faster
- conduction velocities in infarct zones ([7]; vs placebo control): significantly improved
- expression of IL-1b (ob/ob model mice; [8]): went down
- expression of IL-2 (ob/ob model mice; [8]): went down
- expression of IL-6 (ob/ob model mice; [8]): went down
- expression of MCP-1 (ob/ob model mice; [8]): went down
- reduction of IL-1b expression (ob/ob model mice; 10 mg/kg/day group, 28 days): statistically significant
- reduction of MCP-1 expression (ob/ob model mice; 10 mg/kg/day group, 28 days): statistically significant
